Test results published in publication PMC5289647, “L-glutamine Induces Expression of Listeria monocytogenes Virulence Genes” (PLoS Pathogens, 2017).

What was measured:
[1] = target: T1, GlnPQ (Listeria monocytogenes, UniProt A0A0H3GES4); experiment: radiolabelled uptake by intact bacteria, rapid filtration; type: cell-based; settings: PBS pH 7.4, 1.6 mM MgSO4, 1% glucose, 37 °C; labelled compound; mixed with unlabelled L-glutamine
T1 construct: gene LMRG_02270; native full-length ABC importer in L. monocytogenes cells; uptake compared with glnPQ deletion and complemented strains; glnP locus also printed as LMRG_02770 (apparent misprint)
T1 sequence (A0A0H3GES4 entry or part of it): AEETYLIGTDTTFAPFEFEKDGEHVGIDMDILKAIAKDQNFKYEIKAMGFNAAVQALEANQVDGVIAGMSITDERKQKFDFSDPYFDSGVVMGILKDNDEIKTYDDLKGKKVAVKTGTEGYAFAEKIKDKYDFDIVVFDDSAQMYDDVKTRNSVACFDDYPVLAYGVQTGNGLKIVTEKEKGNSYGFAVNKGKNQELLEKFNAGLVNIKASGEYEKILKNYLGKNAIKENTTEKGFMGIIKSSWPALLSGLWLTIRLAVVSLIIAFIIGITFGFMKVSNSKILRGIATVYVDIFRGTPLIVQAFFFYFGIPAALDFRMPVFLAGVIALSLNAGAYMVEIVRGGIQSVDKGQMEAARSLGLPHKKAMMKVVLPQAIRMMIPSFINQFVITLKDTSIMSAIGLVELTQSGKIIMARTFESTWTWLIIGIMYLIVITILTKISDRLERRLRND
T1 sequence (A0A0H3GF44 entry or part of it, further chain): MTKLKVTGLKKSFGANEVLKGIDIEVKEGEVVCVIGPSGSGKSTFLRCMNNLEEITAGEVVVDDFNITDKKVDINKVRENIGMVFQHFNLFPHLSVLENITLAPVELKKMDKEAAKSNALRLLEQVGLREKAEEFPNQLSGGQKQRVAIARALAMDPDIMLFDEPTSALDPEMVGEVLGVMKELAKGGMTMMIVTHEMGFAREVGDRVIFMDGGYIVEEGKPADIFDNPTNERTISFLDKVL

[2] = target: T2, SBP domain of LMRG_02270 (GlnPQ SBP; GlnP) (Listeria monocytogenes, UniProt A0A0H3GES4); experiment: isothermal titration calorimetry; type: binding
T2 construct: SBP domain only (residues 29-254), signal peptide (first 28 residues) and transmembrane domain removed; N-terminal His-tag (pET-19b), codon-optimised synthetic gene; E. coli BL21-Gold (DE3); locus also printed as LMRG_02770 (apparent misprint)
T2 sequence (A0A0H3GES4 entry or part of it): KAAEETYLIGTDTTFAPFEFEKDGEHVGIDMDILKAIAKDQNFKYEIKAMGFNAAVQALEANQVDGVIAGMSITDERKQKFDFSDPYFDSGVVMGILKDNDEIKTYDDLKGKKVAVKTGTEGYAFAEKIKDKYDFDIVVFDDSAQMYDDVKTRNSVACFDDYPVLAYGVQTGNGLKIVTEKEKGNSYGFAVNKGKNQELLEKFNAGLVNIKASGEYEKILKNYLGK

NC(=O)CC[C@H](N)C(=O)O [3H L-glutamine]
L-glutamine uptake [1]: the rapid uptake of L-glutamine measured in the transport experiments is indeed mediated by an active

NC(=O)CC[C@H](N)C(=O)O [L-glutamine]
Kd [2]: 4.7 µM
